From article PMC7944402, “Resin-acid derivatives bind to multiple sites on the voltage-sensor domain of the Shaker potassium channel” (The Journal of General Physiology, 2021)

What was measured:
[1] = target: T1, Shaker KV channel R362Q (Drosophila melanogaster, UniProt P08510, DEL6-46/R362Q); details: Fig. 1 E; ref Ottosson et al., 2017; Silverå Ejneby et al., 2018; cited from earlier work
T1 construct: expressed in transfected cells; host or cells: Xenopus laevis oocytes (RNA injection)

[2] = target: T2, Shaker KV channel R362Q/R365Q (Drosophila melanogaster, UniProt P08510, DEL6-46/R362Q/R365Q); experiment: Two-electrode voltage clamp in Xenopus oocytes: R362Q/R365Q; type: cell-based; details: 100 μM, pH 7.4, R362Q/R365Q
T2 construct: expressed in transfected cells; host or cells: Xenopus laevis oocytes (RNA injection)
T2 sequence (P08510 other isoform, or with tags, fused parts or gaps DEL6-46/R362Q/R365Q): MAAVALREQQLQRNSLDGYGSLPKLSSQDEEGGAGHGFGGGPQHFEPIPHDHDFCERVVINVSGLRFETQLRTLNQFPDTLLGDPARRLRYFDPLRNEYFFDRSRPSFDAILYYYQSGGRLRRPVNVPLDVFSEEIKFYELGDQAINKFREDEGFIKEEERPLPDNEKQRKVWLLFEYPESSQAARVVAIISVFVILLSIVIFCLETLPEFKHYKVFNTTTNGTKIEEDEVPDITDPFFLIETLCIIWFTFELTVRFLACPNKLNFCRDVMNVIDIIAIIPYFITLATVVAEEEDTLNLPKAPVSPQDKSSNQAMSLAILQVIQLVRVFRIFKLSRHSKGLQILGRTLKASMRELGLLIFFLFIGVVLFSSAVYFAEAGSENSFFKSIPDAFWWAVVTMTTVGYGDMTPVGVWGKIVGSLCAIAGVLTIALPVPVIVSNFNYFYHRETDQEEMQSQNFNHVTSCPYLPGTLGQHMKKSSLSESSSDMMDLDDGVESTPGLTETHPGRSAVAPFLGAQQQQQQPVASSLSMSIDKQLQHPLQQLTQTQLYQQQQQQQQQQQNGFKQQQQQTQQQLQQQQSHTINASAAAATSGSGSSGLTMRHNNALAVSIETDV
Text: (§1) The Shaker H4 channel (GenBank accession no. NM_167595.3; [Kamb et al., 1987]), with removed N-type inactivation due to a Δ6-46 deletion (ShH4IR, in Bluescript II KS(+) plasmid; [Hoshi et al., 1990]), is referred to as the WT Shaker KV channel. Addition of two positively charged arginines (M356R/A359R) at the extracellular top of the voltage sensor increases the effect of charged lipophilic compounds ([Ottosson et al., 2014], [2015], [2017]). […] However, for the resin-acid derivatives studied in the present investigation, R362 reduced the effect. Therefore, we specifically refer to the two added arginines just outside S4 (M356R/A359R) as the 2R motif. Mutations were introduced with site-directed mutagenesis and verified with sequencing as described previously ([Börjesson et al., 2010]). RNA injection and oocyte handling were performed as before ([Börjesson et al., 2010]; [Ottosson et al., 2015]). All animal experiments were approved by the Linköping’s local Animal Care and Use Committee.
(§2) Electrophysiological experiments were made 1–6 d after RNA injection. K^+ currents were measured with the two-electrode voltage-clamp technique (GeneClamp 500B amplifier; Axon Instruments) as described previously ([Ottosson et al., 2015]; [Silverå Ejneby et al., 2018]). […]
(§3) The conductance, G(V), was calculated as G(V)=I/(V−VK), (1) where I is the steady-state current measured at the end of each test-voltage sweep (100 ms after onset; Clampfit 10.5; Molecular Devices), V is the absolute membrane voltage, and VK is the reversal potential for K^+ ions (set to −80 mV). […] The resin-acid–induced G(V) shift was calculated as V1/2 (compound) − V1/2 (control). The relative change in GMAX was calculated as GMAX (compound) / GMAX (control). The concentration dependence for the G(V) shifts was calculated as ΔV= ΔVMAX/(1 +EC50/c), (3) where ΔV is the voltage shift, ΔVMAX is the voltage shift at saturating concentration, c is the concentration of the tested compound, and EC50 is the concentration at which half-maximum response occurs.

[3] = target: T3, Shaker KV channel R362Q/R365Q/W454A/F280I (Drosophila melanogaster, UniProt P08510, DEL6-46/F280I/R362Q/R365Q/W454A); experiment: Two-electrode voltage clamp in Xenopus oocytes: R362Q/R365Q/W454A/F280I; type: cell-based; details: 100 μM, pH 7.4, R362Q/R365Q/W454A/F280I
T3 construct: expressed in transfected cells; host or cells: Xenopus laevis oocytes (RNA injection)
T3 sequence (P08510 other isoform, or with tags, fused parts or gaps DEL6-46/F280I/R362Q/R365Q/W454A): as the sequence (P08510 other isoform, or with tags, fused parts or gaps DEL6-46/R362Q/R365Q) above, with F239I, W413A counted along it
Text: as §1, with “Mutations were introduced with site-directed mutagenesis and verified with sequencing as described previously ([Börjesson et al., 2010]). RNA injection and oocyte handling were performed as before ([Börjesson et al., 2010]; [Ottosson et al., 2015]). All animal experiments were approved by the Linköping’s local Animal Care and Use Committee.” left out
as §2
The conductance, G(V), was calculated as G(V)=I/(V−VK), (1) where I is the steady-state current measured at the end of each test-voltage sweep (100 ms after onset; Clampfit 10.5; Molecular Devices), V is the absolute membrane voltage, and VK is the reversal potential for K^+ ions (set to −80 mV). […] The resin-acid–induced G(V) shift was calculated as V1/2 (compound) − V1/2 (control). The relative change in GMAX was calculated as GMAX (compound) / GMAX (control). […]

[4] = target: T4, Shaker KV channel M356R/A359R/R362Q (Drosophila melanogaster, UniProt P08510, A359R/DEL6-46/M356R/R362Q); experiment: Two-electrode voltage clamp in Xenopus oocytes: 2R motif/R362Q; type: cell-based; details: 100 μM, pH 7.4, M356R/A359R/R362Q
T4 construct: expressed in transfected cells; host or cells: Xenopus laevis oocytes (RNA injection)
T4 sequence (P08510 other isoform, or with tags, fused parts or gaps DEL6-46/M356R/A359R/R362Q): as the sequence (P08510 other isoform, or with tags, fused parts or gaps DEL6-46/R362Q/R365Q) above, with M315R, A318R, Q324R counted along it
Text: as §1
(§4) Electrophysiological experiments were made 1–6 d after RNA injection. K^+ currents were measured with the two-electrode voltage-clamp technique (GeneClamp 500B amplifier; Axon Instruments) as described previously ([Ottosson et al., 2015]; [Silverå Ejneby et al., 2018]). The amplifier’s leak compensation was used, and the currents were low-pass filtered at 5 kHz. The control solution contained (in mM) 88 NaCl, 1 KCl, 15 HEPES, 0.4 CaCl2, and 0.8 MgCl2, and pH was set with NaOH. All experiments were made at room temperature (20°C–23°C). The holding potential was set to −80 mV (or −100 mV if the mutant was not fully closed at −80 mV).
Stock solutions were stored at −20°C and diluted in control solution just before experiments. The test solution was added to the oocyte bath manually with a syringe. […] To make sure all Wu50 molecules were negatively charged, the pH of the control solution was set to 9.0 before the experiments. This pH change had only small effects on channel kinetics and the G(V) relation.
as §3

[5] = target: T5, Shaker KV channel with the 2R motif (M356R/A359R) (Drosophila melanogaster, UniProt P08510, A359R/DEL6-46/M356R); experiment: Two-electrode voltage clamp in Xenopus oocytes: 2R motif channel; type: cell-based
T5 construct: expressed in transfected cells; host or cells: Xenopus laevis oocytes (RNA injection)
T5 sequence (P08510 other isoform, or with tags, fused parts or gaps DEL6-46/M356R/A359R): as the sequence (P08510 other isoform, or with tags, fused parts or gaps DEL6-46/R362Q/R365Q) above, with M315R, A318R, Q321R, Q324R counted along it
Text: (§5) The Shaker H4 channel (GenBank accession no. NM_167595.3; [Kamb et al., 1987]), with removed N-type inactivation due to a Δ6-46 deletion (ShH4IR, in Bluescript II KS(+) plasmid; [Hoshi et al., 1990]), is referred to as the WT Shaker KV channel. […] Therefore, we specifically refer to the two added arginines just outside S4 (M356R/A359R) as the 2R motif. Mutations were introduced with site-directed mutagenesis and verified with sequencing as described previously ([Börjesson et al., 2010]). RNA injection and oocyte handling were performed as before ([Börjesson et al., 2010]; [Ottosson et al., 2015]). All animal experiments were approved by the Linköping’s local Animal Care and Use Committee.
as §4
(§6) Stock solutions were stored at −20°C and diluted in control solution just before experiments. The test solution was added to the oocyte bath manually with a syringe. […] To make sure all Wu50 molecules were negatively charged, the pH of the control solution was set to 9.0 before the experiments.
(§7) The conductance, G(V), was calculated as G(V)=I/(V−VK), (1) where I is the steady-state current measured at the end of each test-voltage sweep (100 ms after onset; Clampfit 10.5; Molecular Devices), V is the absolute membrane voltage, and VK is the reversal potential for K^+ ions (set to −80 mV). The conductance was fitted with a Boltzmann equation (GraphPad Prism 5; GraphPad Software, Inc.) GK(V)=GMAX/{1+exp[(V½−V)/s]}, (2) where GMAX is the amplitude (maximal conductance) of the curve, V is the absolute membrane voltage, V1/2 is the midpoint, and s is the slope. The resin-acid–induced G(V) shift was calculated as V1/2 (compound) − V1/2 (control). The relative change in GMAX was calculated as GMAX (compound) / GMAX (control). The concentration dependence for the G(V) shifts was calculated as ΔV= ΔVMAX/(1 +EC50/c), (3) where ΔV is the voltage shift, ΔVMAX is the voltage shift at saturating concentration, c is the concentration of the tested compound, and EC50 is the concentration at which half-maximum response occurs.

[6] = test system: Shaker KV channel binding sites (S3/S4, S4/pore, residual); experiment: Additive model of site contributions to the G(V) shift (least squares fit); set-up: species or system Drosophila melanogaster
Text: We also considered a reduced dataset of five mutants for Wu50 to make the comparison between the two compounds equitable (Table S1).
The G(V) shift for each mutant was expressed as a sum of contribution from the various sites: ΔVmodel=ΔVS3/S4+ΔVS4/pore+ΔVResidual, (4) where ΔVS3/S4 is the G(V) shift due to compound binding to the S3/S4 site, ΔVS4/pore is the G(V) shift due to compound binding to the S4/pore site, and ΔVResidual is the G(V) shift due to compound binding to other sites, including the top-VSD site.
Following the assumptions based on observations made using MD simulations, ΔVS3/S4 was set to 0 if the 2R motif was missing (i.e., in the WT channel), ΔVS4/pore could adopt one of four values depending on the type of mutation (R362/W454 = WT configuration, R362Q, W454A, or R362Q/W454A), and ΔVResidual was assumed to be the same for all mutants.
The model further assumed that there is a residual effect that can be due to binding to the VSD-top site or to any other unidentified site and that the contributions due to binding to the S3/S4 site and the S4/pore site depend upon mutations at this site.

[7] = target: T6, WT Shaker KV channel (ShH4IR) (Drosophila melanogaster, UniProt P08510, DEL6-46); experiment: Two-electrode voltage clamp of Shaker KV channels expressed in Xenopus laevis oocytes: WT; type: cell-based; details: for EC50: WT, pH 7.4, concentration-response (Eq. 3), read-out: EC50 of the G(V) shift (apparent affinity)
T6 construct: expressed in transfected cells; host or cells: Xenopus laevis oocytes (RNA injection)
T6 sequence (P08510 other isoform, or with tags, fused parts or gaps DEL6-46): as the sequence (P08510 other isoform, or with tags, fused parts or gaps DEL6-46/R362Q/R365Q) above, with Q321R, Q324R counted along it
Text: as §5, §4, §6, §7

[8] = target: T1, Shaker KV channel R362Q; experiment: Two-electrode voltage clamp in Xenopus oocytes: R362Q; type: cell-based; details: 100 μM, pH 7.4, R362Q
Text: as §1, §2, §3

[9] = target: T7, Shaker KV channel W454A (Drosophila melanogaster, UniProt P08510, DEL6-46/W454A); experiment: Two-electrode voltage clamp in Xenopus oocytes: W454A; type: cell-based; details: 100 μM, pH 7.4, W454A
T7 construct: expressed in transfected cells; host or cells: Xenopus laevis oocytes (RNA injection)
T7 sequence (P08510 other isoform, or with tags, fused parts or gaps DEL6-46/W454A): as the sequence (P08510 other isoform, or with tags, fused parts or gaps DEL6-46/R362Q/R365Q) above, with Q321R, Q324R, W413A counted along it
Text: as §1, §2, §3

[10] = target: T8, Shaker KV channel R362Q/W454A/F416A (Drosophila melanogaster, UniProt P08510, DEL6-46/F416A/R362Q/W454A); experiment: Two-electrode voltage clamp in Xenopus oocytes: R362Q/W454A/F416A; type: cell-based; details: 100 μM, pH 7.4, R362Q/W454A/F416A
T8 construct: expressed in transfected cells; host or cells: Xenopus laevis oocytes (RNA injection)
T8 sequence (P08510 other isoform, or with tags, fused parts or gaps DEL6-46/R362Q/F416A/W454A): as the sequence (P08510 other isoform, or with tags, fused parts or gaps DEL6-46/R362Q/R365Q) above, with Q324R, F375A, W413A counted along it
Text: as §1, §2, §3

T1 sequence (P08510 other isoform, or with tags, fused parts or gaps DEL6-46/R362Q): as the sequence (P08510 other isoform, or with tags, fused parts or gaps DEL6-46/R362Q/R365Q) above, with Q324R counted along it

Compound: CC/C=C\C/C=C\C/C=C\C/C=C\C/C=C\C/C=C\CCC(=O)O [DHA, docosahexaenoic acid]
- Change of the G(V)-shifting effect on neutralization of R362 (R362Q versus WT) [1]: no noticeable change

Compound: CC(C)c1ccc2c(c1)CC[C@H]1[C@](C)(C(=O)O)CCC[C@]21C [DHAA, dehydroabietic acid]
- Change of the G(V)-shifting effect on neutralization of R362 (R362Q versus WT) [1]: increase in effect

Compound: CO/N=C1\C[C@H]2[C@](C)(C(=O)O)CCC[C@]2(C)c2cc(Br)c(C(C)C)cc21 [Wu32]
- Change of the G(V)-shifting effect on neutralization of R362 (R362Q versus WT) [1]: increase in effect

Compound: CC(C)c1ccc2c(c1)CC[C@H]1[C@](C)(COS(=O)(=O)O)CCC[C@]21C [Wu161]
- GMAX (rel.) [2]: 0.99 rel.
- GMAX (rel.) [3]: 0.64 rel.
- GMAX (rel.) [4]: 1.19 rel.
- GMAX (rel.) ([5]; 100 μM, pH 7.4, M356R/A359R (=2R)): 1.20 rel.
- EC50 ([5]; 2R motif, pH 7.4, concentration-response (Eq. 3), read-out: EC50 of the G(V) shift (apparent affinity)): 36.4 ± 9 µM
- ΔVS3/S4 (contribution of the S3/S4 site in the presence of the 2R mutations) ([6]; five mutants): −17 mV
- ΔVS4/pore, R362Q configuration ([6]; five mutants): 0 to −6 mV
- ΔVS4/pore, WT S4/pore site ([6]; five mutants): −7 to −13 mV
- ΔVS4/pore, W454A configuration ([6]; no clear difference between five-mutants and eight-mutants datasets): +2 to −6 mV
- GMAX (rel.) ([7]; 100 μM, pH 7.4, WT): 1.03 rel.
- EC50 [7]: 43.7 ± 6.3 µM
- GMAX (rel.) [8]: 1.05 rel.
- GMAX (rel.) [9]: 0.86 rel.
- GMAX (rel.) [10]: 0.47 rel.

Compound: C[C@@]1(COS(=O)(=O)O)CCC[C@]2(C)c3cc(Cl)c(Cl)c(Cl)c3CC[C@@H]12 [Wu181]
- Increase of the maximum G(V) shift by the 2R motif ([5]; 2R motif versus WT, Wu50 pH 9.0, Wu161 and Wu181 pH 7.4): 590%
- ΔVMAX (maximum G(V) shift) ([5]; 2R motif, pH 7.4, concentration-response (Eq. 3)): −53.6 ± 4.0 mV
- EC50 [7]: 1.6 ± 0.6 µM
